Assays:
[1] = test system: Brassica rapa subsp. oleifera; assay: Growth inhibition of Brassica rapa subsp. oleifera assessed as chlorophyll b level at 3 x 10^-4 M after 7 days; format: functional; parameters: scale not given: the % may be the effect or the level left
[2] = test system: Brassica rapa subsp. oleifera; assay: Growth inhibition of Brassica rapa subsp. oleifera assessed as total chlorophyll level at 5 x 10^-5 M after 7 days; format: functional; parameters: scale not given: the % may be the effect or the level left
[3] = test system: Brassica rapa subsp. oleifera; assay: Growth inhibition of Brassica rapa subsp. oleifera assessed as chlorophyll b level at 5 x 10^-5 M after 7 days; format: functional; parameters: scale not given: the % may be the effect or the level left
[4] = test system: Brassica rapa subsp. oleifera; assay: Growth inhibition of Brassica rapa subsp. oleifera assessed as chlorophyll b level at 3 x 10^-5 M after 7 days; format: functional; parameters: scale not given: the % may be the effect or the level left
[5] = test system: Brassica rapa subsp. oleifera; assay: Growth inhibition of Brassica rapa subsp. oleifera assessed as total chlorophyll level at 1 x 10^-4 M after 7 days; format: functional; parameters: scale not given: the % may be the effect or the level left
[6] = test system: Brassica rapa subsp. oleifera; assay: Growth inhibition of Brassica rapa subsp. oleifera assessed as chlorophyll a level at 5 x 10^-5 M after 7 days; format: functional; parameters: scale not given: the % may be the effect or the level left
[7] = test system: Brassica rapa subsp. oleifera; assay: Growth inhibition of Brassica rapa subsp. oleifera assessed as total chlorophyll level at 3 x 10^-5 M after 7 days; format: functional; parameters: scale not given: the % may be the effect or the level left
[8] = test system: Brassica rapa subsp. oleifera; assay: Growth inhibition of Brassica rapa subsp. oleifera assessed as root growth at 1 x 10^-4 M after 7 days; format: functional
[9] = test system: Brassica rapa subsp. oleifera; assay: Growth inhibition of Brassica rapa subsp. oleifera assessed as chlorophyll a level at 1 x 10^-4 M after 7 days; format: functional; parameters: scale not given: the % may be the effect or the level left
[10] = test system: Brassica rapa subsp. oleifera; assay: Growth inhibition of Brassica rapa subsp. oleifera assessed as root growth at 3 x 10^-5 M after 7 days; format: functional
[11] = test system: Brassica rapa subsp. oleifera; assay: Growth inhibition of Brassica rapa subsp. oleifera assessed as total chlorophyll level at 3 x 10^-4 M after 7 days; format: functional; parameters: scale not given: the % may be the effect or the level left
[12] = test system: Brassica rapa subsp. oleifera; assay: Growth inhibition of Brassica rapa subsp. oleifera assessed as root growth at 5 x 10^-5 M after 7 days; format: functional
[13] = test system: Brassica rapa subsp. oleifera; assay: Growth inhibition of Brassica rapa subsp. oleifera assessed as chlorophyll a level at 3 x 10^-4 M after 7 days; format: functional; parameters: scale not given: the % may be the effect or the level left
[14] = test system: Brassica rapa subsp. oleifera; assay: Growth inhibition of Brassica rapa subsp. oleifera assessed as chlorophyll b level at 1 x 10^-4 M after 7 days; format: functional; parameters: scale not given: the % may be the effect or the level left
[15] = test system: Brassica rapa subsp. oleifera; assay: Growth inhibition of Brassica rapa subsp. oleifera assessed as root growth at 3 x 10^-4 M after 7 days; format: functional
[16] = test system: Brassica rapa subsp. oleifera; assay: Growth inhibition of Brassica rapa subsp. oleifera assessed as chlorophyll a level at 3 x 10^-5 M after 7 days; format: functional; parameters: scale not given: the % may be the effect or the level left
[17] = Toxicity in ip dosed Mus musculus ddY (mouse) assessed as mortality after 1 to 7 days; format: organism-based; conditions: in vivo

Structure (SMILES) | Activity [1] [%] | Activity [2] [%] | Activity [3] [%] | Activity [4] [%] | Activity [5] [%] | Activity [6] [%] | Activity [7] [%] | Activity [8] [mm] | Activity [9] [%] | Root length [10] [mm] | Activity [11] [%] | Root length [12] [mm] | Activity [13] [%] | Activity [14] [%] | Activity [15] [mm] | Activity [16] [%] | LD50 [17] [mg/kg]
O=C([O-])COc1ccc(Cl)cc1Cl.[Na+] | 1.68 | 16.35 | 4.84 | 7.32 | 18.67 | 11.51 | 25.12 | 2.6 | 12.57 | 3.3 | 4.82 | 3.1 | 3.16 | 6.1 | 2.1 | 17.82 | –
CC(=O)NN1C(=O)CSC1=S [N-ACETYLAMINORHODANINE] | 4.23 | 17.47 | 5.99 | 6.65 | 16.24 | 11.5 | 20.31 | 47.4 | 10.84 | 47 | 13.58 | 46.5 | 9.35 | 5.41 | 39.3 | 13.68 | > 1000
O=C(NN1C(=O)CSC1=S)c1ccccc1 [N-BENZOYLAMINORHODANINE] | 3.1 | 19.54 | 6.12 | 6.82 | 17.6 | 13.43 | 21.24 | 33.8 | 11.46 | 79.6 | 9.62 | 73.3 | 6.53 | 6.15 | 19.2 | 14.44 | > 1000

Source: ChEMBL document CHEMBL3044763, “Inhibitory Activities of Rhodanine Derivatives on Plant Growth” (Biosci Biotechnol Biochem, 1996)
